“Also recorded” adds a separate entry of the source. Where no end group is shown, it is not given here.
Assays:
refolded pepsin (Rp) [1] = target: T1, refolded pepsin (Rp) (Sus scrofa, UniProt P00791); assay: PS binding to Rp (Trp-fluorescence); set-up: species or system porcine; conditions: for Kd: 0.6-1.2 µM Rp, 20 mM acetic acid/NaOH pH 5.3 without added NaCl, ≥10 min, Trp-fluorescence ex 295 nm, em 315 nm, mean ± SD from non-linear curve fitting, 3-5 measurements, read-out: K d (PS-Rp dissociation constant); for Kd / ΔΔGPS-Rp (change in PS-Rp binding energy upon mutation): 20°C; for ΔΔGPS-Rp (change in PS-Rp binding energy upon mutation): from K d, pH 5.3, relative to WT, ± SD by propagation of errors; for effect on affinity for Rp / PS-Rp stability (in words): pH 5.3, 20°C, compared with PSwt
T1 construct: Only the R13 and K36 side-chains of the PS form hydrogen bonds with the mature pepsin domain; purchased Sigma (St. Louis, MO, USA)
T1 sequence (P00791 60-385): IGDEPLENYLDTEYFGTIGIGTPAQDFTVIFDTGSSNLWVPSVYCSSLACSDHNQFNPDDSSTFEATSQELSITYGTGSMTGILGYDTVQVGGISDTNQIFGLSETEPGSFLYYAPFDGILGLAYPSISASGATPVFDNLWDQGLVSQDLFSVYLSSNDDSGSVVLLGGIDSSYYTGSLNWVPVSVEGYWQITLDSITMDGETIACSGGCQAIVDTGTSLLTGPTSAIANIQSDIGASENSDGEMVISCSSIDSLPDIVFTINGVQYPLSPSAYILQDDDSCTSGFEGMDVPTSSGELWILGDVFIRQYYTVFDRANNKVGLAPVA
Experimental: The change in intrinsic tryptophan fluorescence of pepsin was used to measure the binding of PS to Rp and to determine the dissociation constant, K d. Rp solutions were diluted to between 0.6 and 1.2 µM in 20 mM acetic acid/NaOH buffer, pH 5.3, and mixed with various amounts of PS. After incubating the samples at 20°C for ≥10 minutes, the intrinsic tryptophan fluorescence was measured using a PTI spectrofluorophotometer (Photon Technology International, Inc., Birmingham NJ, USA), with excitation at 295 nm and emission measured at 315 nm. The change in fluorescence, ΔF i, at each PS concentration, [PS], was normalized relative to the maximum change, ΔF max, and fit according to [drawing 1] (1) where [Rp] is the total concentration of pepsin.
PS binding to Rp was measured in buffer without added 100 mM NaCl in order to obtain more accurate measurements of K d, owing to a larger change in signal in the absence of salt. Additionally, without added 100 mM NaCl it was possible to isolate the PS-Rp binding step from the catalyzed folding step thereby improving the determination of K d.
(§1) The change in stability of the folding transition state upon mutation was calculated using [drawing 3] (3) where k f, wt and k f, mut are the PS-catalyzed folding rate constants of the wild-type and mutant PS peptides. The change in equilibrium stability of PS-Np relative to PS-Rp upon mutation of the PS (ΔΔGPS(Np-Rp)) was determined as the difference between the changes in binding energies, using [drawing 4] (4) and [drawing 5] (5)
(§2) Here, ΔΔGbind refers to either ΔΔGPS-Rp, determined from K d values, or ΔΔGPS-Np, determined from K i values. The Φ-value for each mutant corresponds to eq 3 divided by eq 5. Additional details are included in the supporting information section (Text S1).

native pepsin (Np) = target: T2, native pepsin (Np) (Sus scrofa, UniProt P00791); assay: PS binding to Np (competitive inhibition of KPAEFF(NO2)AL hydrolysis); type: biochemical, porcine; conditions: for Ki: 10 nM Np, 20 mM acetic acid/NaOH pH 5.3, 100 mM NaCl, 5 min incubation, substrate KPAEFF(NO2)AL 0.1 mM, absorbance 300 nm, competitive model, mean ± SD from non-linear curve fitting, 3-5 measurements, read-out: K i (PS-Np inhibition constant); for Ki / ΔΔGPS-Np (change in PS-Np binding energy upon mutation): 20°C; for ΔΔGPS-Np (change in PS-Np binding energy upon mutation): from K i, pH 5.3, relative to WT, ± SD by propagation of errors; for effect on affinity for Np / PS-Np stability (in words): pH 5.3, 20°C, PS inhibition of Np, compared with PSwt
T2 construct: Only the R13 and K36 side-chains of the PS form hydrogen bonds with the mature pepsin domain; purchased Sigma (St. Louis, MO, USA)
T2 sequence (P00791 60-385): as above
Experimental: PS binding to Np was determined by using the PS as a competitive inhibitor and measuring the inhibition constant, K i. Hydrolysis of the KPAEFF(NO2)AL substrate was measured by following the decrease in absorbance at 300 nm using a Biochrom Ultrospec 3100pro UV-Vis spectrophotometer (Biochrom Ltd., Cambridge, England) in 20 mM acetic acid/NaOH buffer, pH 5.3, containing 100 mM NaCl. Np samples were diluted to 10 nM and incubated with PS for 5 min at 20°C and assayed for activity. The reaction rates were normalized to the activity in the absence of PS and the data fit using the competitive inhibitor form of the Michaelis-Menten equation [drawing 2] (2) where v0 is the initial reaction rate, V max is the maximum reaction rate, [S] is the substrate concentration (fixed at 0.1 mM), [I] is the inhibitor concentration, and K M is the Michaelis constant.
as §1, §2

refolded pepsin (Rp) [2] = target: T1, refolded pepsin (Rp); assay: PS-catalyzed folding of Rp to Np (recovery of Np activity); type: biochemical, porcine; conditions: for k f (PS-catalyzed folding rate constant): 1 µM Rp, 30 µM PS, pH 5.3 (20 mM acetic acid/NaOH, 100 mM NaCl), Np activity assayed at pH 1.2, 25°C with KPAEFF(NO2)AL, monoexponential fit, mean ± SD from non-linear curve fitting, 3-5 measurements; for k f (PS-catalyzed folding rate constant) / ΔΔG^‡ (change in folding activation energy upon mutation): 15°C; for ΔΔG^‡ (change in folding activation energy upon mutation): from k f, pH 5.3, relative to WT, ± SD by propagation of errors
Experimental: PS-catalyzed folding of Rp to Np
PS-catalyzed folding was carried out by combining 1 µM Rp and 30 µM PS, in a volume of 100 µl, at pH 5.3 (20 mM acetic acid/NaOH with 100 mM NaCl) and 15°C. Aliquots were taken at several time intervals, diluted 20-fold in 50 mM phosphoric acid buffer, pH 1.2, incubated for 5 min at 25°C and assayed for Np activity using the KPAEFF(NO2)AL substrate. The recovery of Np activity with time, t, was fit with a monoexponential function (y = a – bexp(–k f t)) to obtain the PS-catalyzed folding rate constant, k f. Under these conditions, PS binding to Rp reached equilibrium within the dead-time of mixing (<8 sec), as judged by Trp-fluorescence.
as §1
Temperature dependence of PS-catalyzed folding
PS-catalyzed folding could be measured only up to 15 °C for PSwt, as the reaction was too fast at higher temperatures. […] Given the linear temperature dependence it could be reasonably assumed that changes in activation energies (mutant – wild-type) would be unchanged from 15 °C to 20 °C, and so could be compared directly with changes in binding energies (wild-type – mutant) that were determined at 20 °C.

LVKAPLVRKKSLRQNLIKNGKLKDFLKTHKHNPASKYFPEAAAL [V4A]
Kd (refolded pepsin (Rp) [1]): 1190 ± 230 nM | ΔΔGPS-Rp (change in PS-Rp binding energy upon mutation) (refolded pepsin (Rp) [1]): 0.79 ± 0.12 kcal/mol | effect on affinity for Rp / PS-Rp stability (in words) (refolded pepsin (Rp) [1]): relatively large destabilizing effect on PS-Rp | Ki (native pepsin (Np)): 50.9 ± 6.9 nM | ΔΔGPS-Np (change in PS-Np binding energy upon mutation) (native pepsin (Np)): -0.14 ± 0.13 kcal/mol | effect on affinity for Np / PS-Np stability (in words) (native pepsin (Np)): very small stabilizing effect on PS-Np; also recorded: stabilizing to the native state | k f (PS-catalyzed folding rate constant) (refolded pepsin (Rp) [2]): 0.27 ± 0.03 min⁻¹ | ΔΔG^‡ (change in folding activation energy upon mutation) (refolded pepsin (Rp) [2]): 0.94 ± 0.15 kcal/mol

LVKVPLVRKKSLRQNLAKNGKLKDFLKTHKHNPASKYFPEAAAL [I17A]
Kd (refolded pepsin (Rp) [1]): 210 ± 90 nM | ΔΔGPS-Rp (change in PS-Rp binding energy upon mutation) (refolded pepsin (Rp) [1]): -0.21 ± 0.24 kcal/mol | effect on affinity for Rp / PS-Rp stability (in words) (refolded pepsin (Rp) [1]): negligible effect on PS-Rp binding; also recorded: negligible effect on PS-Rp and PS-TS stability | Ki (native pepsin (Np)): 394 ± 65.1 nM | ΔΔGPS-Np (change in PS-Np binding energy upon mutation) (native pepsin (Np)): 1.05 ± 0.14 kcal/mol | effect on affinity for Np / PS-Np stability (in words) (native pepsin (Np)): largest reduction in affinities for Np; also recorded: one of the most destabilizing mutations to the PS-Np complex | k f (PS-catalyzed folding rate constant) (refolded pepsin (Rp) [2]): 1.40 ± 0.26 min⁻¹ | ΔΔG^‡ (change in folding activation energy upon mutation) (refolded pepsin (Rp) [2]): 0.01 ± 0.18 kcal/mol | effect on rate of PS-catalyzed folding (in words) (refolded pepsin (Rp) [2]; pH 5.3, 15°C, compared with PSwt): no effect

LVKVPLVRKKSLRQNLIKNGKLKDFLKTHKHNPASKYFPEAAAL [WT]
Kd (refolded pepsin (Rp) [1]): 310 ± 30 nM | Ki (native pepsin (Np)): 64.8 ± 11.4 nM | k f (PS-catalyzed folding rate constant) (refolded pepsin (Rp) [2]): 1.42 ± 0.34 min⁻¹

Reference: publication PMC4077824, “Conserved Prosegment Residues Stabilize a Late-Stage Folding Transition State of Pepsin Independently of Ground States” (PLoS ONE, 2014)
